How the values were obtained:
Format in all cases: cell-based, human
[1] = tested on: JNK, IκBα or p38; assay: Western blot phosphorylation kinetics in stimulated hASC: JNK, IκBα, p38
[2] = tested on: hASC; assay: MTS assay (CellTiter AQueous One Solution Cell Proliferation Assay), hASC viability/growth; conditions: for hASC growth in MTS assay, considering basal growth 100%: 100 ng/ml, 6 days in culture, normalized to cells without stimuli (100%); for promotion of cell growth when ERK was inhibited: with ERK inhibitor U0126, effect kept when PI3K was inhibited
Experimental: (§1) FIG. 2. APRIL and BAFF enhance hASC viability and proliferation. (A): Cell viability was assessed by the CellTiter AQueous One Solution Cell Proliferation Assay (Promega, Madison, Wis.) according to manufacturer's protocols. hASC (3.5×10^3 cells/well) were cultured for 6 days in 96-well plates with 100 ng/ml APRIL or BAFF. Absorbance (OD 490 nm) was measured in an ELISA plate reader (n=at least three experiments). Values were normalized to the absorbance of cells cultured without stimuli (100%). (B): Histograms show cell proliferation measured by a […] BrdU incorporation assay. hASC were cultured in p60 plates with 100 ng/ml APRIL or BAFF; BrdU (20 μM) was added for the last three days. At day 6, BrdU incorporation was detected by flow cytometry using an anti-BrdU antibody. Numerals indicate percentage of cells positive for BrdU and, therefore, actively proliferating. Cell viability was assessed by the CellTiter AQueous One Solution Cell Proliferation Assay (Promega, Madison, Wis.) according to manufacturer's protocols. hASC (3.5×10^3 cells/well) were cultured for 6 days in 96-well plates with 100 ng/ml APRIL or BAFF. Absorbance (OD 490 nm) was measured in an ELISA plate reader (n=at least three experiments). Values were normalized to the absorbance of cells cultured without stimuli (100%). Additionally, cell proliferation was measured by a colorimetric BrdU incorporation assay. hASC were cultured in p60 plates with 100 ng/ml APRIL or BAFF; BrdU (20 μM) was added for the last three days. At day 6, BrdU incorporation was detected by flow cytometry using an anti-BrdU antibody. Three independent MTS and BrdU assays were performed and triplicates included for each condition.

[3] = tested on: HLA-I, HLA-II, CD80 and CD86 expression; assay: Flow cytometry of hASC activation molecules; conditions: APRIL or BAFF activation
Experimental: hASCs were harvested, stained with appropriate fluorochrome-coupled antibodies and measured by flow cytometry (BD FACS Calibur). Data were analyzed using the FlowJo program (TreeStar, Ashland, Oreg.).

[4] = tested on: indoleamine 2,3-dioxygenase (IDO); assay: IDO induction in hASC; conditions: BAFF/APRIL activation of hASC
[5] = tested on: Akt; assay: Western blot phosphorylation kinetics in stimulated hASC: Akt; conditions: 100 ng/ml, 10-120 min
Experimental: (§2) FIG. 3. APRIL and BAFF-mediated signaling in hASC. hASC were stimulated with 100 ng/ml APRIL or BAFF (10, 30, 60, 120 min, 37° C.), placed on ice, washed with ice-cold PBS, and lysed with cell lysis buffer (Roche, Indianapolis, Ind.). Extracts were quantified by absorbance, resolved in SDS-PAGE and analyzed by immunoblot. Antibodies used were anti-phospho-Akt (Ser473), -Akt, -phospho-ERK1/2 (Thr202/Tyr204), and -ERK1/2) (BD Bioscience); secondary antibodies were horseradish peroxidase-conjugated bovine anti-rabbit and goat anti-mouse IgG. (B): Histograms show cell proliferation measured by BrdU incorporation as in (FIG. 2B), with addition of the ERK inhibitor U0126 (2.5 μM; Sigma) or the PI3K inhibitor LY294002 (10 μM; Calbiochem) to the culture on days 0 and 3. […]
(§3) hASC were stimulated with 100 ng/ml APRIL or BAFF (10, 30, 60, 120 min, 37° C.), placed on ice, washed with ice-cold PBS, and lysed with cell lysis buffer (Roche, Indianapolis, Ind.). Extracts were quantified by absorbance, resolved in SDS-PAGE and analyzed by immunoblot. […]
(§4) Plated hASC (1.5×10^4 cells/cm2) were stimulated with APRIL or BAFF (100 ng/ml) and lysed with lysis buffer (Roche) with protease and phosphatase inhibitors. Proteins in extracts were quantified by absorbance with the BCA protein assay kit (Pierce), and equal amounts of protein homogenate resolved in SDS-PAGE, and transferred to PVDF membranes (Millipore). […]

[6] = tested on: PBMC proliferation; assay: Immunosuppression assay: proliferation of activated CFSE-labeled PBMC with allogeneic hASC; conditions: 100 ng/ml, day 5
Experimental: FIG. 4. Modulation of APRIL and BAFF in hASC. Immunosuppressive effect (A): hASC cells were cultured with 100 ng/ml APRIL (light grey bar), BAFF (dark grey bar) or no stimulus (white bar) and then stimulated with 1 μg/ml LPS or poly I:C. […] Data were acquired using a FACScalibur cytometer and analyzed using FCAP array software (BD Bioscience). (B): Immunosupression assay: Allogeneic hASCs were cultured with activated CFSE labelled PBLs at a ratio of 1:25 (hASC: PBLs) in the presence or absence of BAFF or APRIL (100 ng/ml). After 5 days cells were harvested, analyzed by flow cytometry in a FACScalibur cytometer (BD Bioscience) and acquired for CFSE. […]
For CFSE labeling, freshly purified PBMC (10-20×106) were washed extensively to remove FBS, resuspended in 200 μl of a 10 μM CFSE solution (Sigma), and incubated with constant shaking (37° C., 10 min) Cells were washed and cultured overnight, and one aliquot was used to set up and control FL-1 voltage for CFSE in the cytometer. […] At day 5, PBMC were harvested and cell proliferation was determined according to loss of CFSE in the FL-1 channel. Data were analyzed using Cellquest-Pro software on gated lymphocytes (based on forward scatter/side scatter properties). The percentage of proliferating lymphocytes was calculated by gating in the region (M1) of the FL-1 channel corresponding to the last 48 h of culture ([…]). […]

[7] = tested on: ERK1/2; assay: Western blot phosphorylation kinetics in stimulated hASC: ERK1/2; conditions: 100 ng/ml, 10-120 min
Experimental: as §2, §3, §4

[8] = tested on: hASC; assay: BrdU incorporation assay by flow cytometry, hASC proliferation; conditions: 100 ng/ml, day 6, BrdU for the last three days; control 13%
Experimental: as §1, with “Additionally, cell proliferation was measured by a colorimetric BrdU incorporation assay. hASC were cultured in p60 plates with 100 ng/ml APRIL or BAFF; BrdU (20 μM) was added for the last three days.” left out, “Three independent MTS and BrdU assays were performed and triplicates included for each condition.” left out

[9] = tested on: APRIL and BAFF secretion in hASC; assay: ELISA of APRIL and BAFF concentrations in hASC medium
Experimental: FIG. 4. Modulation of APRIL and BAFF in hASC. Immunosuppressive effect (A): hASC cells were cultured with 100 ng/ml APRIL (light grey bar), BAFF (dark grey bar) or no stimulus (white bar) and then stimulated with 1 μg/ml LPS or poly I:C. […] Data were acquired using a FACScalibur cytometer and analyzed using FCAP array software (BD Bioscience). (B): Immunosupression assay: Allogeneic hASCs were cultured with activated CFSE labelled PBLs at a ratio of 1:25 (hASC: PBLs) in the presence or absence of BAFF or APRIL (100 ng/ml). After 5 days cells were harvested, analyzed by flow cytometry in a FACScalibur cytometer (BD Bioscience) and acquired for CFSE. Percentage of proliferating cells (relative to PBLs alone) in the last two generations is shown. Mean and standard deviation of experiments with 6 different buffy coats are represented. Buffy coats were provided by the National Transfusion Centre of the Comunidad Autónoma of Madrid. PBLs were isolated by density centrifugation gradient using Ficollplaque Plus (GE Healthcare Biosciences AB, Uppsala) (C): hASC cells were cultured with IFNγ. Supernatants were collected five days later. […] IL-6 and IL-8 concentration in the medium after 48 h, was measured by the Cytometric Bead Array (CBA) immunoassay (BD Bioscience) following manufacturer instructions. Data were acquired using a FACScalibur cytometer and analyzed using FCAP array software (BD Bioscience). […] Supernatants were collected five days later. APRIL and BAFF concentrations in the medium were determined by ELISA (R&D Systems for BAFF, Bender MedSystem for APRIL).

[10] = MTS assay (CellTiter AQueous One Solution Cell Proliferation Assay), hASC viability/growth; conditions: human, hASC cells; no APRIL/BAFF; control 100%; read-out: basal hASC growth in MTS assay with inhibitor added to medium
Experimental: as §1

[11] = 10, 30, 100 ng/ml, supernatants after five days

BAFF: recombinant protein from R&D Systems; TNF ligand binding BCMA, TACI and BAFF-R
phosphorylation of JNK, IκBα or p38 [1]: no clear effect
hASC growth in MTS assay, considering basal growth 100% [2]: 140%
promotion of cell growth when ERK was inhibited [2]: did not promote cell growth
effect on hASC expression of HLA-I, HLA-II, CD80 and CD86 [3]: do not affect
induction of IDO [4]: did not induce
phosphorylation of Akt [5]: induced rapid phosphorylation
effect on ability of hASC to suppress PBMC proliferation [6]: did not alter
phosphorylation of ERK1/2 [7]: induced rapid phosphorylation
percentage of BrdU-positive cells [8]: 29.4%

poly I:C [reference compound]
induction of APRIL or BAFF secretion by TLR ligand ([9]; hASC activated with LPS or poly I:C): Neither ligand induced

O=c1cc(N2CCOCC2)oc2c(-c3ccccc3)cccc12 [LY294002, reference compound]
viability at 6 days [10]: 60.3%

CXCL12: cytokine from Peprotech; enhances APRIL secretion
APRIL secretion by hASC [9, 11]: preferentially enhances APRIL

APRIL: recombinant protein from R&D Systems; TNF ligand binding BCMA and TACI
phosphorylation of JNK, IκBα or p38 [1]: no clear effect
hASC growth in MTS assay, considering basal growth 100% [2]: 114%
promotion of cell growth when ERK was inhibited [2]: did not promote cell growth
effect on hASC expression of HLA-I, HLA-II, CD80 and CD86 [3]: do not affect
induction of IDO [4]: did not induce
phosphorylation of Akt [5]: induced rapid phosphorylation
effect on ability of hASC to suppress PBMC proliferation [6]: did not alter
phosphorylation of ERK1/2 [7]: induced rapid phosphorylation
percentage of BrdU-positive cells [8]: 27.5%

N#CC(=C(/N)Sc1ccccc1N)/C(C#N)=C(\N)Sc1ccccc1N [U0126, reference compound]
decrease in basal hASC growth (MTS assay), result in words ([2]; inhibitor added to medium, no APRIL/BAFF): but not ERK inhibitor

B1: IFN-γ: cytokine from Peprotech; inducer of BAFF (protein, UniProt P01579 24-161, looked up)
Interferon gamma: QDPYVKEAENLKKYFNAGHSDVADNGTLFLGILKNWKEESDRKIMQSQIVSFYFKLFKNFKDDQSIQKSVETIKEDMNVKFFNSNKKKRDDFEKLTNYSVTDLNVQRKAIHELIQVMAELSPAAKTGKRKRSQMLFRG
BAFF secretion by hASC [9, 11]: promotes BAFF secretion

From patent US20130295672A1, “STEM CELL CULTURE MEDIA AND METHODS” (CONSEJO SUPERIOR DE INVESTIGACIONES CIENTÍFICAS, priority 2010, published 2013)
